In PMC10656490, “Sequence-based prediction of the intrinsic solubility of peptides containing non-natural amino acids” (Nature Communications, 2023):
Like-named read-outs stand apart in the source and are kept apart here. Where a SMILES comes first, the peptide text is derived from it. [ ]: non-standard residue; d: D form. Cha = N[C@@H](CC1CCCCC1)C(=O)O; Cit = NC(=O)NCCC[C@H](N)C(=O)O

Experiment: Solubility by ultracentrifugation (GLP-1 variants)
Assay type: physicochemical
Details: for Ultracentrifugation: GLP1 variants, Figure 3c; for Ultracentrifugation / First Run / Second Run: in mg/mL; for First Run / Second Run: source data Supplementary Fig. 4, GLP-1 variants, 2 stands where Table 3 prints S; for solubility: 10 mM citrate 10 mM phosphate buffer, pH 7, GLP-1 variants, 2 mg/mL in 10 mM citrate 10 mM phosphate pH 7, 30 min 500,000 g 4 °C
Procedure: Relative solubility was measured using a recently developed PEG precipitation assay. For all PYY variants the standard assay worked well, and no changes had to be implemented (Fig. 2a). […] Moreover, to ensure that the results stemming from the AMS assay are consistent and reliable, we performed the 18 A experiments twice independently on different days. The results confirmed that they are indeed replicable, and we were therefore confident to use them for the validation of our approach (Supplementary Fig. 3). […] Even at final concentrations of 0.33 mg/mL (instead of 1 mg/mL) most variants remained insoluble. We used ultracentrifugation to determine the relative solubilities of the GLP-1 variants (Table 3). To confirm the reliability of this method we replicated the results on a different day with the same stock solutions (Supplementary Fig. 4).
Aliquots of 1 mg were prepared from the purified and lyophilised stocks. […] Briefly, a precipitant is titrated in increasing concentration to a fixed concentration of protein to induce precipitation of the protein. The samples are incubated for 48 h at 4° after mixing. The samples are centrifuged and the remaining protein concentration is measured in the supernatant using a plate reader. PYY and 18 A variants were dissolved in 10 mM citrate 10 mM phosphate buffer at pH 7 for a final concentration of 3 mg/mL. The assay was run with 50% 6000 PEG for PYY and with 3.8 M AMS for 18 A. To improve throughput, a multichannel robot was employed to measure several peptides at once with the workflow being kept the same as described previously. […] 120 µL of each sample were centrifuged using an OptimaTLX Ultracentrifuge and spinning for 30 min at 500,000 g at 4 °C. The supernatant was removed, and the peptide concentration was measured using a NanoDrop.

[1] = run 1, read-out: Run 1 solubility (peptide concentration in supernatant)
[2] = run 2, read-out: Run 2 solubility (peptide concentration in supernatant)

Compound | Ultracentrifugation | First Run | Second Run | solubility [1] [µg/mL] | solubility [2] [µg/mL]
CC[C@H](C)[C@H](NC(=O)[C@H](Cc1ccccc1)NC(=O)[C@H](CCC(=O)O)NC(=O)[C@H](CCCCN)NC(=O)[C@H](C)NC(=O)[C@H](C)NC(=O)[C@H](CCC(N)=O)NC(=O)CNC(=O)[C@H](CCC(=O)O)NC(=O)[C@H](CC(C)C)NC(=O)[C@H](Cc1ccc(O)cc1)NC(=O)[C@H](CO)NC(=O)[C@H](CO)NC(=O)[C@@H](NC(=O)[C@H](CC(=O)O)NC(=O)[C@H](CO)NC(=O)[C@@H](NC(=O)[C@H](Cc1ccccc1)NC(=O)[C@@H](NC(=O)CNC(=O)[C@H](CCC(=O)O)NC(=O)[C@H](C)NC(=O)[C@@H](N)Cc1c[nH]cn1)[C@@H](C)O)[C@@H](C)O)C(C)C)C(=O)N[C@@H](C)C(=O)N[C@@H](Cc1c[nH]c2ccccc12)C(=O)N[C@@H](CC(C)C)C(=O)N[C@H](C(=O)N[C@@H](CCCCN)C(=O)NCC(=O)N[C@@H](CCCNC(=N)N)C(N)=O)C(C)C [Compound 1, reference compound] | 0.9813 | 0.5803 | 1.382 | – | –
CC[C@H](C)[C@H](NC(=O)[C@H](Cc1ccccc1)NC(=O)[C@H](CCC(=O)O)NC(=O)[C@H](CCCCN)NC(=O)[C@H](C)NC(=O)[C@H](CCCNC(N)=O)NC(=O)[C@H](CCC(N)=O)NC(=O)CNC(=O)[C@H](CCC(=O)O)NC(=O)[C@H](CC(C)C)NC(=O)[C@H](Cc1ccc(O)cc1)NC(=O)[C@H](CO)NC(=O)[C@H](CO)NC(=O)[C@@H](NC(=O)[C@H](CC(=O)O)NC(=O)[C@H](CO)NC(=O)[C@@H](NC(=O)[C@H](Cc1ccccc1)NC(=O)[C@@H](NC(=O)CNC(=O)[C@H](CCC(=O)O)NC(=O)[C@H](C)NC(=O)[C@@H](N)Cc1c[nH]cn1)[C@@H](C)O)[C@@H](C)O)C(C)C)C(=O)N[C@@H](C)C(=O)N[C@@H](Cc1c[nH]c2ccccc12)C(=O)N[C@@H](CC(C)C)C(=O)N[C@H](C(=O)N[C@@H](CCCCN)C(=O)NCC(=O)N[C@@H](CCCNC(=N)N)C(N)=O)C(C)C [Compound 6] (H-HAEGTFTSDVSSYLEGQ[Cit]AKEFIAWLVKGR-NH2; N-terminus assumed) | 2 | 2 | 2 | > 2000 | > 2000
CC[C@H](C)[C@H](NC(=O)[C@H](Cc1ccccc1)NC(=O)[C@H](CCC(=O)O)NC(=O)[C@H](CCCCN)NC(=O)[C@H](C)NC(=O)[C@H](CC1CCCCC1)NC(=O)[C@H](CCC(N)=O)NC(=O)CNC(=O)[C@H](CCC(=O)O)NC(=O)[C@H](CC(C)C)NC(=O)[C@H](Cc1ccc(O)cc1)NC(=O)[C@H](CO)NC(=O)[C@H](CO)NC(=O)[C@@H](NC(=O)[C@H](CC(=O)O)NC(=O)[C@H](CO)NC(=O)[C@@H](NC(=O)[C@H](Cc1ccccc1)NC(=O)[C@@H](NC(=O)CNC(=O)[C@H](CCC(=O)O)NC(=O)[C@H](C)NC(=O)[C@@H](N)Cc1c[nH]cn1)[C@@H](C)O)[C@@H](C)O)C(C)C)C(=O)N[C@@H](C)C(=O)N[C@@H](Cc1c[nH]c2ccccc12)C(=O)N[C@@H](CC(C)C)C(=O)N[C@H](C(=O)N[C@@H](CCCCN)C(=O)NCC(=O)N[C@@H](CCCNC(N)=O)C(N)=O)C(C)C [Compound 7] (H-HAEGTFTSDVSSYLEGQ[Cha]AKEFIAWLVKG[Cit]-NH2; N-terminus assumed) | 0.8319 | 0.8416 | 0.8222 | 840 | 820
